Results published in patent US7256176B2, “Methods of modulating β cell function” (Joslin Diabetes Center, Inc., priority 2002, dated 2007).
Positions of bridges follow the written chain, without caps; N, C: chain ends.

Columns and labels:
human MCH-2R = human MCH-2R (Homo sapiens, UniProt Q969V1); conditions: cited from earlier work
[1] = system: islets isolated from C57B1/6J mice; assay: MCH stimulation of insulin secretion from overnight cultured isolated islets; format: cell-based, mouse
[2] = system: islets isolated from MCH over expressing mice; assay: MCH treatment of islets from MCH over expressing mice (insulin secretion); format: cell-based, mouse; conditions: n=2, control 2.8±0.36
MAP kinase = assay: Effect of MCH on MAP kinase activity in islets or clonal β-cells; format: cell-based, mouse; conditions: islets or clonal β-cells treated with 1 μM MCH
Description: To begin to examine the mechanism of action of MCH in the islets the effect of the peptide on MAP kinase activity was investigated.

rat adipocytes = conditions: cited from earlier work
feeding = conditions: administered ICV; cited from earlier work

human MCH-2R, sequence (Q969V1 whole entry): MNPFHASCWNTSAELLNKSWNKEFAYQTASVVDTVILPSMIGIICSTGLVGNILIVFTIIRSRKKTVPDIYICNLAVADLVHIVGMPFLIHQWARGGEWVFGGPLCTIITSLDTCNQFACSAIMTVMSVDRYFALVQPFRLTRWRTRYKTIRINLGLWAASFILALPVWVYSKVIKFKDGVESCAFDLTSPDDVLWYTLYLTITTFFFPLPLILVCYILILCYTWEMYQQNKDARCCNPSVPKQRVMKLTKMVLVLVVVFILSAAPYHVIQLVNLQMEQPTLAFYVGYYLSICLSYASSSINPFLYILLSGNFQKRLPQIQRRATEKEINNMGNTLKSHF

Row | Substance | activation of receptor compared with full-length human MCH (human MCH-2R) | insulin secretion ([1]; 100 nM MCH, 30 min incubation, 11.1 mM glucose, n=3, p<0.02 vs control 0.86±0.22) | insulin secretion, dependence on concentration and time ([1]; overnight cultured islets) | insulin secretion [2] [pg/μg protein] | effect on MAP kinase levels (MAP kinase) | leptin secretion (rat adipocytes) | feeding (feeding)
1 | Arg-cyclo(S-S)(Cys-Met-Leu-Gly-Arg-Val-Tyr-Arg-Pro-Cys) | about as effectively as full-length human MCH | – | – | – | – | – | –
2 | NH2-Asp-Phe-Asp-Met-Leu-Arg-Cys-Met-Leu-Gly-Arg-Val-Tyr-Arg-Pro-Cys-Trp-Gln-Val-COOH (H-DFDMLRCMLGRVYRPCWQV-OH; disulfide 7-16 (inferred); ends not checked) [MCH, cyclic 19 amino-acid peptide that is an important regulator of feeding behavior] | – | 2.1±0.11 % of insulin content | concentration- and time-dependent insulin secretion | 11.4±0.49 | No consistent effect | stimulate leptin secretion | acute increase in feeding
